{
  "source": "patent US20240285653A1",
  "about": "“COMPOSITIONS AND METHODS FOR TREATMENT AND PREVENTION OF DISEASES UTILIZING TIRILAZAD SALTS” (priority 2022, published 2024)",
  "tested_on": "explant tissue from the dermoepidermal junction of the hoof",
  "type": "cell-based",
  "procedure": "An in vitro study was conducted to analyze the protective effects of tirilazad mesylate on cellular degeneration as a result of Bothrops alternatus snake venom as a model for laminitis. Explant tissue samples were obtained from the dermoepidermal junction of the hoof of the right forelimb under nervous system block without the need for euthanasia.\nUnder sterile conditions, laminar cuts (mini-explants) were made of each explant and the tissue washed with physiological solution. The mini-explants were pre-incubated for 5 hours with tirilazad and then for 24 hours with Bothrops venom. Culture medium was as follows: Dulbecco's […] (DMEM, GIBCO-Invitrogen) with 10% heat-inactivated fetal bovine serum (FBS, GIBCO-Invitrogen), L-Glutamine (29.2 mg/mL), Penicillin (10,000 units/mL), and Streptomycin (10,000 μg/mL, GIBCO-Invitrogen) as antibiotics.\nHistopathology: Tissues were processed with classical histological techniques, e.g., cutting by microtome (Minot) and stained with hematoxylin-eosin (H-E) and Periodic Acid Schiff (PAS) stains.",
  "key": {"[1]": {"conditions": "Tirilazad 1 μM (5 hours pre-incubation) + venom 75 μg/ml (24 hours), listed as tirilazad"}, "[2]": {"conditions": "Tirilazad 1 μM alone, no venom, listed as tirilazad"}, "[3]": {"conditions": "Tirilazad 3 μM (5 hours pre-incubation) + venom 75 μg/ml (24 hours)"}, "[4]": {"conditions": "Tirilazad 3 μM alone, no venom, listed as tirilazad"}, "[5]": {"conditions": "Tirilazad 10 μM (5 hours pre-incubation) + venom 75 μg/ml (24 hours), listed as tirilazad"}, "[6]": {"conditions": "Tirilazad 10 μM alone, no venom"}, "[7]": {"conditions": "Tirilazad 10 μM alone, no venom, listed as tirilazad"}, "[8]": {"conditions": "Tirilazad 20 μM (5 hours pre-incubation) + venom 75 μg/ml (24 hours)"}, "[9]": {"conditions": "Tirilazad 20 μM alone, no venom"}},
  "note": "Where two headings read alike, the source gives them in different places.",
  "data": [
    {"compound": "C[C@@H]1C[C@H]2[C@@H]3CCC4=CC(=O)C=C[C@]4(C)C3=CC[C@]2(C)[C@H]1C(=O)CN1CCN(c2cc(N3CCCC3)nc(N3CCCC3)n2)CC1", "note": "[Tirilazad, 16α-methyl-21-[4-[2,6-bis(1-pyrrolidinyl)-4-pyrimidinyl]-1-piperazinyl]pregna-1,4,9(11)-triene-3,20-dione]", "values": [
      {"measurement": "Separation of Basement Membrane", "setting": "Tirilazad 1 μM (5 hours pre-incubation) + venom 75 μg/ml (24 hours)", "value": "No"},
      {"measurement": "Cell Nuclei", "setting": "[1]", "value": "intense presence of altered epidermal cells"},
      {"measurement": "Pyknosis or Karyopyknosis", "setting": "[1]", "value": "nuclear pyknosis"},
      {"measurement": "Separation of Basement Membrane", "setting": "[1]", "value": "did not show separation of the basement membrane"},
      {"measurement": "Pyknosis or Karyopyknosis", "setting": "Tirilazad 1 μM alone, no venom", "value": "No"},
      {"measurement": "Separation of Basement Membrane", "setting": "Tirilazad 1 μM alone, no venom", "value": "No"},
      {"measurement": "Cell Nuclei", "setting": "[2]", "value": "epidermal cells were normal and showed preserved cytoplasmic and nuclear structure"},
      {"measurement": "Separation of Basement Membrane", "setting": "[2]", "value": "did not show separation of the basement membrane"},
      {"measurement": "Cell Nuclei", "setting": "[3]", "value": "intense presence of altered epidermal cells"},
      {"measurement": "Pyknosis or Karyopyknosis", "setting": "[3]", "value": "nuclear pyknosis predominating"},
      {"measurement": "Separation of Basement Membrane", "setting": "[3]", "value": "slight separation of the basement membrane"},
      {"measurement": "Separation of Basement Membrane", "setting": "Tirilazad 3 μM alone, no venom", "value": "No"},
      {"measurement": "Cell Nuclei", "setting": "[4]", "value": "slight epidermal cytoplasmic and nuclear alteration"},
      {"measurement": "Separation of Basement Membrane", "setting": "[4]", "value": "did not show separation of the basement membrane"},
      {"measurement": "Separation of Basement Membrane", "setting": "Tirilazad 10 μM (5 hours pre-incubation) + venom 75 μg/ml (24 hours)", "value": "No"},
      {"measurement": "Cell Nuclei", "setting": "[5]", "value": "Moderate presence of altered epidermal cells"},
      {"measurement": "Pyknosis or Karyopyknosis", "setting": "[5]", "value": "moderate nuclear pyknosis"},
      {"measurement": "Separation of Basement Membrane", "setting": "[5]", "value": "did not show separation of the basement membrane"},
      {"measurement": "Pyknosis or Karyopyknosis", "setting": "[6]", "value": "No"},
      {"measurement": "Separation of Basement Membrane", "setting": "[6]", "value": "No"},
      {"measurement": "Cell Nuclei", "setting": "[7]", "value": "epidermal cells were normal and showed preserved cytoplasmic and nuclear structure"},
      {"measurement": "Separation of Basement Membrane", "setting": "[7]", "value": "did not show separation of the basement membrane"},
      {"measurement": "Cell Nuclei", "setting": "[8]", "value": "intense presence of altered epidermal cells"},
      {"measurement": "Pyknosis or Karyopyknosis", "setting": "[8]", "value": "intense nuclear pyknosis"},
      {"measurement": "Separation of Basement Membrane", "setting": "[8]", "value": "intense separation of the basement membrane"},
      {"measurement": "Cell Nuclei", "setting": "[9]", "value": "epidermal cells were normal and showed preserved cytoplasmic and nuclear structure"},
      {"measurement": "Pyknosis or Karyopyknosis", "setting": "[9]", "value": "No"},
      {"measurement": "Separation of Basement Membrane", "setting": "[9]", "value": "intense separation of the basement membrane"},
      {"measurement": "Effect on cellular structure in hoof tissue (overall conclusion)", "setting": "summary of the explant study", "value": "provides a protective and/or therapeutic effect on cellular structure in hoof tissue"}
    ]}
  ]
}
